Experimental data published in US12325866B2, “Systems and methods for growing cells in vitro” (Yissum Research Development Company of the Hebrew …, priority 2016, dated 2025).

How the values were obtained:
CSIF [1] = test: Conversion of CSIF to adipocytes in serum-free medium (LipidTOX neutral lipid stain); format: cell-based, chicken
Experimental: FIGS. 4A-D depict conversion of CSIF to adipocytes in serum-free medium. FIGS. 4A-C. LipidTOX™ (Thermo Fisher Scientific) neutral lipid stain of serum-free cultures of CSIF exposed to either 400 μM oleic acid (OA) alone (FIG. 4A) or with 0.5 mM IBMX (OA+IBMX, FIG. 4B), or 10 μM Rosiglitazone (OA+TZD, FIG. 4C) for 7 days. […] FIG. 4D—Normalized intracellular lipid content (in arbitrary fluorescent units) of CSIF cultures treated for 4 and 7 days as prescribed above.
To develop a protocol for conversion of the spontaneously immortalized chicken fibroblasts (CSIF line) under serum-free conditions, the present inventor seeded the CSIF at 70% confluence in the optimized serum-free DMEM/F12 medium supplemented with dexamethasone (0.1 μM), 1×ITS+3 (Sigma, 12771), and bFGF (10 ng/ml). The CSIF cells were treated for 4 or 7 days with 200 to 400 μM oleic acid alone, or in combination with 0.5 mM IBMX, or 10 μM of the FDA-approved small molecule Rosiglitazone.

[2] = tested on: stromal-vascular cells derived from chicken adipose tissues; conditions: oleic acid 200-400 μM, in the presence of serum; cited from earlier work
CSIF [3] = test: Serum-free medium development: sulforhodamine B stain and protein content after 72 hours; format: cell-based, chicken; conditions: for Effect on CSIF growth / proliferation: supplement added to minimal serum-free medium, bFGF 10 ng/ml, EGF 5 ng/ml, PGE2 0.01 μM, GH 10 ng/ml
Experimental: FIGS. 3A-F depict the development and identification of serum-free medium for CSIF propagation. Shown are sulforhodamine B stain (FIGS. 3A-E) and protein content quantification (FIG. 3F) following 72 hours of culture with 15% serum (“FBS”), minimal serum-free medium (MIN) alone (FIG. 3B) or with 10 ng/ml basic Fibroblast Growth Factor (bFGF, FIG. 3C), 5 ng/ml Epidermal Growth Factor (EGF, FIG. 3D), 0.01 μM Prostaglandin E2 (PGE2, FIG. 3E), or 10 ng/ml Growth Hormone. Serum-free medium (SFM) contained MIN medium supplemented with bFGF (10 ng/ml), EGF (5 ng/ml), and PGE2 ([…]).
(§1) To develop a serum-free medium that supports the culture of CEF and CS IF, the present inventor formulated a minimal medium composed of DMEM/F12 supplemented with 0.1 μM dexamethasone, 10 μg/ml insulin, 5.5 μg/ml transferrin, and 5 ng/ml selenium (ITS), 12 μM linoleic and 12 μM oleic acids, and 2 mM of L-Analyl-L-Glutamine. Cells were plated in FBS containing medium, and transferred to minimal medium after overnight attachment. Basal medium was supplemented with growth factors and hormones showing that while heparin and T3 had little effect of CSIF growth (data not shown), the addition of basic Fibroblast Growth Factor (bFGF, 10 ng/ml) was essential (FIGS. 3C and 3F), showing 20±2 hours doubling time (data not shown).

[4] = tested on: primary chicken embryonic fibroblasts (CEF); test: Proliferation of primary CEF in serum-free media / with supplements; format: cell-based; conditions: serum-free medium, or minimal medium plus supplement (EGF 5 ng/ml, PGE2 0.01 μM, GH 10 ng/ml)
Experimental: as §1, with “The CSIFs readily grow on tissue culture plastic in DMEM/F12 medium supplemented with 15% FBS, and 2 mM of […] (FIG. 2D). There are several serum-free medium formulations for the growth of human and mouse fibroblasts, including PCS-201-040 (ATCC) and […] To” for “To”, “[…].” for “L-Analyl-L-Glutamine.”

CSIF [5] = test: Dox-induced MyoD1+MYOG conversion to myocytes, rMLC3-GFP reporter; format: cell-based, chicken; conditions: Dox-induced MyoD1+MYOG expression for 11 or 30 days
Source text: FIGS. 5A-E depict conversion of CSIF to myocytes. FIG. 5A—Phase image of CSIF expressing Dox-inducible MyoD1 and Myogenin (MYOG) for 6 days (“d6”). FIGS. 5B-C—CSIF expressing rat myosin light chain COP-GFP reporter (rMLC3-GFP) following Dox-induced MyoD1+MYOG expression for 11 days (FIG. 5B) or 30 days (FIG. 5C). About 2-4% of the cultures become positive for MLC3 (Green). MLC3 positive myoblasts maintain elongated fiber morphology for over 30 days in vitro (FIG. 5C). FIG. 5D—Fluorescence staining using phalloidin (F-Actin probe, green) showing multinucleated cells (syncytia) as well as some striation following 7 days in culture. Nuclei are stained with Hoechst (blue). FIG. 5E—Immunofluorescence staining for α1-skeletal muscle actin (ACTA1, green) and Troponin T (red) showing a clear muscle phenotype by day 7 of induction. Nuclei are stained with Hoechst (blue).
To examine if similar conversion of chicken cells to myocytes is possible, the present inventor generated several nucleic acid constructs (vectors) as is schematically illustrated in FIGS. 6-8 and 12. […] A second lentiviral vector (SEQ ID NO:2, FIG. 7) was created for Dox-inducible chicken MYOG expression included the cMyogenin coding sequence (SEQ ID NO: 7) under the control of the minimal CMV promoter (SEQ ID NO: 8). […]

primary CEF = conditions: oleic acid 400 μM with 20% serum; selenium 100-300 μg/l with 2% serum; cited from earlier work

What does the source list for CC(C)Cn1c(=O)n(C)c(=O)c2[nH]cnc21 [IBMX, 3-isobutyl-1-methylxanthine]?
Normalized intracellular lipid content (CSIF [1]; 4 and 7 days, 400 μM OA with small molecule (FIG. 4D)): optimal results; Adipogenesis (neutral lipid stain) (CSIF [1]; 7 days, with 400 μM oleic acid, IBMX 0.5 mM, Rosiglitazone 10 μM): strong adipogenesis; Adipogenic phenotype (cell shape) (CSIF [1]; added to oleic acid, IBMX 0.5 mM, Rosiglitazone 10 μM): supported a rounded adipogenic phenotype; Differentiation of chicken preadipocytes to adipocytes [2]: no affect

Which “Effect on CSIF growth / proliferation” value (CSIF [3]) does the source give for CCCCC[C@H](O)/C=C/[C@H]1[C@H](O)CC(=O)[C@@H]1C/C=C\CCCC(=O)O [PGE2, Prostaglandin E2] here?
The value was “supported the proliferation”.

What about the “Proliferation of primary CEF” value [4] of the same molecule?
Its value is “supported the proliferation”.

With N[C@@H](Cc1cc(I)c(Oc2ccc(O)c(I)c2)c(I)c1)C(=O)O [T3] as the molecule, how does the “Effect on CSIF growth / proliferation” value (CSIF [3]) read?
The value was “little effect”.

With C[C@H]1c2cccc(O)c2C(=O)C2=C(O)[C@]3(O)C(=O)C(C(N)=O)=C(O)[C@@H](N(C)C)[C@@H]3[C@@H](O)[C@@H]21 [doxycycline, Doxycycline] as the molecule, how does the “Cultures positive for MLC3” value (CSIF [5]) read?
The value was 2-4%.

For CCCCCCCC/C=C\CCCCCCCC(=O)O [oleic acid], which Lipid accumulation (CSIF [1]; 200 to 400 μM oleic acid, 4 or 7 days, serum-free) is on record?
The Lipid accumulation was “increased lipid accumulation”.

And the “Lipid accumulation in primary CEF” value (primary CEF)?
The value was “induced lipid accumulation”.

And the “Differentiation of chicken preadipocytes to adipocytes” value [2]?
The value was “induces their differentiation to adipocytes”.

What does the source list for GH: Growth Hormone?
Effect on CSIF growth / proliferation (CSIF [3]): supported the proliferation; Proliferation of primary CEF [4]: supported the proliferation

For bFGF: basic fibroblast growth factor, which Doubling time (CSIF [3]; minimal medium plus bFGF 10 ng/ml (data not shown)) is on record?
Its Doubling time is 20 ± 2 h.

What about the “Effect on CSIF growth / proliferation” value (CSIF [3]) of the same molecule?
The value was “essential”.

With heparin as the molecule, how does the “Effect on CSIF growth / proliferation” value (CSIF [3]) read?
Its value is “little effect”.
